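48-hour exposure; five concentrations; linearly interpolated endpoints. TGI: total growth inhibition.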 Where only a bound is given, the exact number is not on record here.

From PubChem BioAssay (NCI) come the findings set out here.

Among the test systems are ACHN renal; PC-3 prostate; HCT-116 colon; MDA-MB-231 breast; UACC-257 melanoma; MCF7 breast; MALME-3M melanoma; OVCAR-4 ovarian; IGROV1 ovarian; UACC-62 melanoma; HCT-15 colon; SK-MEL-2 melanoma; NCI-H23 lung; EKVX NSCLC; SF-295 CNS; RPMI-8226 leukemia; TK-10 renal; SK-MEL-5 melanoma.
Common to all, as to assay: NCI tumour cell line growth inhibition, 48 h

In the case of `CC1Cc2c(Br)nc(N)nc2NC1=O` (stereo not drawn), the TGI in the assay with ACHN renal, with PC-3 prostate, with HCT-116 colon, with MDA-MB-231 breast, in the assay on UACC-257 melanoma and with MCF7 breast was > 100 µM in each case. The TGI in the assay with MALME-3M melanoma, with OVCAR-4 ovarian, in the assay on IGROV1 ovarian, in the assay with UACC-62 melanoma, with HCT-15 colon and in the assay with SK-MEL-2 melanoma was > 100 µM each time. The TGI in the assay on NCI-H23 lung, with EKVX NSCLC, in the assay with SF-295 CNS, in the assay with RPMI-8226 leukemia, with TK-10 renal and in the assay with SK-MEL-5 melanoma was > 100 µM each time.
On to `COc1ccccc1C1SCC(=O)N1c1ccc(-n2c(-c3ccccc3)nc3ccccc3c2=O)cc1` (stereo not drawn), for which the TGI in the assay on ACHN renal, with PC-3 prostate, with HCT-116 colon, in the assay with MDA-MB-231 breast, in the assay on UACC-257 melanoma and in the assay with MCF7 breast was > 100 µM each time. The TGI with MALME-3M melanoma is > 100 µM; in the assay with OVCAR-4 ovarian, 56.7 µM; with IGROV1 ovarian, > 100 µM; with UACC-62 melanoma, > 100 µM; in the assay on HCT-15 colon it was > 100 µM; with SK-MEL-2 melanoma, > 100 µM. Further, the TGI in the assay on NCI-H23 lung, in the assay on EKVX NSCLC, in the assay with SF-295 CNS, in the assay on RPMI-8226 leukemia, in the assay on TK-10 renal and in the assay on SK-MEL-5 melanoma was > 100 µM throughout.
With `CC(=O)OC1CCN(C(=O)c2ccccc2)CC1CC1(c2cc3ccccc3[nH]2)OCCO1` (stereo not drawn), the TGI in the assay on ACHN renal, in the assay on PC-3 prostate, in the assay on HCT-116 colon, with MDA-MB-231 breast, in the assay with UACC-257 melanoma and in the assay with MCF7 breast was > 100 µM each time. In addition, the TGI in the assay on MALME-3M melanoma, in the assay on OVCAR-4 ovarian, with IGROV1 ovarian, with UACC-62 melanoma, in the assay with HCT-15 colon and in the assay on SK-MEL-2 melanoma was > 100 µM each time. The TGI with NCI-H23 lung was > 100 µM; with EKVX NSCLC, > 100 µM; with SF-295 CNS, > 100 µM; in the assay with RPMI-8226 leukemia it was 70.4 µM; with TK-10 renal, > 100 µM; in the assay with SK-MEL-5 melanoma it was > 100 µM.
As to `CC(=N/NC(=S)N1CCCCC1)/C(=N\NC(=S)N1CCCCC1)c1ccccc1`, the TGI in the assay with ACHN renal was 3.01 µM; with PC-3 prostate, 3.55 µM; in the assay on HCT-116 colon it was 5.83 µM; with MDA-MB-231 breast, > 19.8 µM; with UACC-257 melanoma, 4.52 µM; in the assay with MCF7 breast, > 22.7 µM. Moreover, the TGI in the assay on MALME-3M melanoma was 3.96 µM; in the assay on OVCAR-4 ovarian, 3.61 µM; in the assay on IGROV1 ovarian, 3.27 µM; in the assay with UACC-62 melanoma, 3.87 µM; in the assay with HCT-15 colon, 4.56 µM; with SK-MEL-2 melanoma it was 4.62 µM. Also, the TGI was 5.16 µM in the assay on NCI-H23 lung; 3.43 µM with EKVX NSCLC; 3.82 µM in the assay on SF-295 CNS; > 100 µM in the assay with RPMI-8226 leukemia; 3.21 µM in the assay on TK-10 renal; 3.57 µM with SK-MEL-5 melanoma.
Consider `CCOC(=O)c1c(N)nn2c1cc1cccccc12`, for which the TGI is > 100 µM with ACHN renal; 53.7 µM in the assay on PC-3 prostate; > 100 µM in the assay with HCT-116 colon; > 100 µM with MDA-MB-231 breast; 71.5 µM in the assay with UACC-257 melanoma; > 100 µM in the assay with MCF7 breast. Besides, the TGI was 67.3 µM with MALME-3M melanoma; > 100 µM in the assay with OVCAR-4 ovarian; 94.8 µM in the assay on IGROV1 ovarian; 50.8 µM in the assay on UACC-62 melanoma; > 100 µM with HCT-15 colon; 45.1 µM in the assay on SK-MEL-2 melanoma. The TGI was 69 µM with NCI-H23 lung; > 100 µM in the assay with EKVX NSCLC; 86.7 µM in the assay on SF-295 CNS; 45.7 µM in the assay on RPMI-8226 leukemia; 74.6 µM in the assay on TK-10 renal; 69 µM in the assay with SK-MEL-5 melanoma.
Take `CC1=NN(C(=O)CC(=O)Nc2ccccc2C)C(=O)C1N=Nc1ccc(C(=O)O)cc1` (stereo not drawn): the TGI in the assay on ACHN renal, in the assay on PC-3 prostate, in the assay on HCT-116 colon, in the assay on MDA-MB-231 breast, in the assay on UACC-257 melanoma and in the assay with MCF7 breast was > 100 µM in each case. Besides, the TGI in the assay with MALME-3M melanoma, with OVCAR-4 ovarian, in the assay with IGROV1 ovarian, with UACC-62 melanoma, in the assay on HCT-15 colon and in the assay with SK-MEL-2 melanoma was > 100 µM each time. In addition, the TGI with NCI-H23 lung, with EKVX NSCLC, in the assay with SF-295 CNS, in the assay on RPMI-8226 leukemia, with TK-10 renal and in the assay on SK-MEL-5 melanoma was > 100 µM throughout.
Regarding `O=c1[nH]nc(Cc2ccccc2)n1/N=C/c1c(O)ccc2ccccc12`, the TGI in the assay with ACHN renal was 84.5 µM; in the assay on PC-3 prostate, 64 µM; in the assay with HCT-116 colon, 45.6 µM; with MDA-MB-231 breast, 44.2 µM; in the assay on UACC-257 melanoma, > 100 µM; with MCF7 breast, > 100 µM. In addition, the TGI with MALME-3M melanoma is 50.7 µM; in the assay with OVCAR-4 ovarian, 67.1 µM; with IGROV1 ovarian, 93.4 µM; in the assay with UACC-62 melanoma, > 100 µM; in the assay on HCT-15 colon, > 100 µM; with SK-MEL-2 melanoma, > 100 µM. Moreover, the TGI in the assay on NCI-H23 lung is > 100 µM; in the assay with EKVX NSCLC, 57.8 µM; in the assay with SF-295 CNS, 69 µM; in the assay with RPMI-8226 leukemia, 82.5 µM; with TK-10 renal, > 100 µM; in the assay on SK-MEL-5 melanoma, 48.7 µM.
Consider `OC(c1nc2ccccc2s1)(C(F)(F)F)C(F)(F)F`, for which the TGI in the assay on ACHN renal, with PC-3 prostate, in the assay with HCT-116 colon, in the assay on MDA-MB-231 breast, with UACC-257 melanoma and in the assay on MCF7 breast was > 100 µM each time. In addition, the TGI in the assay on MALME-3M melanoma, in the assay with OVCAR-4 ovarian, in the assay with IGROV1 ovarian, in the assay with UACC-62 melanoma, in the assay with HCT-15 colon and in the assay on SK-MEL-2 melanoma was > 100 µM in each case. Also, the TGI in the assay with NCI-H23 lung, in the assay on EKVX NSCLC, in the assay on SF-295 CNS, in the assay on RPMI-8226 leukemia, in the assay with TK-10 renal and in the assay on SK-MEL-5 melanoma was > 100 µM throughout.
Turning to `C=C1C(=O)O[C@@H]2[C@H]1C[C@@H](O)[C@H](C)[C@@](O)(C(=O)/C=C/C)[C@H]2OC(=O)C(C)CC` (stereo partly drawn), the TGI is 9.89 µM in the assay with ACHN renal; 51.5 µM in the assay on PC-3 prostate; 3.58 µM with HCT-116 colon; 19.6 µM with MDA-MB-231 breast; > 39.4 µM in the assay with UACC-257 melanoma; 24.9 µM in the assay on MCF7 breast. In addition, the TGI was found to be 4.42 µM with MALME-3M melanoma; 22.8 µM in the assay on OVCAR-4 ovarian; 12.8 µM with IGROV1 ovarian; 32.9 µM in the assay with UACC-62 melanoma; 7.97 µM in the assay with HCT-15 colon; 84.1 µM with SK-MEL-2 melanoma. Moreover, the TGI was 18.2 µM in the assay with NCI-H23 lung; 27.3 µM in the assay with EKVX NSCLC; > 100 µM with SF-295 CNS; 18.2 µM in the assay on RPMI-8226 leukemia; 16.7 µM in the assay with TK-10 renal; 21.3 µM with SK-MEL-5 melanoma.
For the compound `O=C(Nc1cc(C(=O)Nc2cccc(S(=O)(=O)O)c2)cc(C(=O)Nc2cccc(S(=O)(=O)O)c2)c1)c1cccc(C(=O)Nc2cc(C(=O)Nc3cccc(S(=O)(=O)O)c3)cc(C(=O)Nc3cccc(S(=O)(=O)O)c3)c2)c1`, the TGI in the assay on ACHN renal, with PC-3 prostate, in the assay with HCT-116 colon, in the assay on MDA-MB-231 breast, with UACC-257 melanoma and with MCF7 breast was > 100 µM each time. Moreover, the TGI in the assay on MALME-3M melanoma, with OVCAR-4 ovarian, with IGROV1 ovarian, in the assay with UACC-62 melanoma, in the assay with HCT-15 colon and with SK-MEL-2 melanoma was > 100 µM each time. The TGI in the assay on NCI-H23 lung, in the assay on EKVX NSCLC, with SF-295 CNS, in the assay on RPMI-8226 leukemia, with TK-10 renal and in the assay with SK-MEL-5 melanoma was > 100 µM each time.
Turning to `COc1cc(N=CN(C)C)c2ncccc2c1`, the TGI in the assay on ACHN renal, in the assay with PC-3 prostate, in the assay on HCT-116 colon, in the assay with MDA-MB-231 breast, in the assay on UACC-257 melanoma and in the assay on MCF7 breast was > 100 µM each time. In addition, the TGI with MALME-3M melanoma, in the assay with OVCAR-4 ovarian, in the assay with IGROV1 ovarian, in the assay on UACC-62 melanoma, in the assay on HCT-15 colon and in the assay with SK-MEL-2 melanoma was > 100 µM in each case. The TGI in the assay with NCI-H23 lung, in the assay with EKVX NSCLC, in the assay with SF-295 CNS, with RPMI-8226 leukemia, with TK-10 renal and with SK-MEL-5 melanoma was > 100 µM in each case.
